Tests used:
[1] = system: lesional skin from patients with psoriasis; test: Psoriasis-related gene expression in psoriatic lesion biopsy specimens ex vivo; type: cell-based, human; details: 500 ng/mL, 12 hours
Method: Human samples. Biopsy specimens of psoriatic lesions are obtained from about 10 patients after obtaining informed consent. Two adjacent biopsy specimens are taken from each patient. All specimens are cut at the upper dermis, and the epidermal side is used for the experiment. As a medium, HuMedia-KB2 (Kurabo) containing insulin, human epidermal growth factor, bovine pituitary extract, and gentamicin/amphotericin B is used, according to the manufacturer's protocol. One specimen is cultured with vehicle (DMSO), and the adjacent one was cultured with BT032 (500 ng/mL) for 12 hours.
RNA isolation and the quantitative RT-PCR analysis. Total RNA is isolated using Trizol (Invitrogen, Carlsbad, CA) or RNeasy kits (Qiagen, PL Venlo, Netherlands) according to the manufacturer's protocol. Complementary DNA is reverse transcribed using a Prime Script RT reagent kit (Takara Bio, Shiga, Japan). The quantitative RT-PCR is performed by monitoring the synthesis of double-stranded DNA during the various PCR cycles with SYBR Green I (Roche, Basel, Switzerland) and the LightCycler real-time PCR apparatus (Roche), according to the manufacturer's instructions. All primers are obtained from Greiner Japan (Tokyo, Japan).

[2] = system: AIM2 inflammasome; test: IL-1β secretion in macrophages challenged with poly dA:dT (FIG. 4C); type: cell-based, human; details: BT032 20, 100 μM; 6 h
Excerpt: In vitro stimulation of human macrophages.

SMILES: CCCN(CCC)S(=O)(=O)c1ccc(-c2ccc(CCCC(=O)O)cc2)cc1 [BT032, 4-(4′-(N,N-dipropylsulfamoyl)-[1,1′-biphenyl]-4-yl)butanoic acid]
- expression levels of IL1B, IL6, IL23A, IL17A versus control specimens [1]: lower expression levels
- AIM2 (poly dA:dT)-mediated inflammasome activation [2]: no effect

From US20260176232A1, “PROBENECID COMPOUNDS FOR THE TREATMENT OF INFLAMMASOME-MEDIATED DERMATOLOGICAL CONDITIONS” (Bacainn Biotherapeutics, Ltd., priority 2022, published 2026)
